Measurements reported in ChEMBL document CHEMBL5120740, “Design, synthesis and biological evaluation of combretastatin A-4 sulfamate derivatives as potential anti-cancer agents” (RSC Med Chem, 2021).

Experiments:
[1] = biological target: Tubulin (Sus scrofa, UniProt P02554+P02550); assay: Inhibition of pig brain tubulin polymerization by spectrophotometric method; assay type: tissue-based
[2] = Inhibition of Arylsulfatase (unknown origin) using potassium p-nitrophenyl sulfate as substrate incubated for 5 mins; design: species or system Homo sapiens
[3] = test system: MGC-803; assay: Antiproliferative activity against human MGC-803 cells assessed as reduction in cell viability after 24 hrs by CCK-8 assay; assay type: functional, cell-based; conditions: MGC-803, 24 h
[4] = test system: MKN-45; assay: Antiproliferative activity against human MKN-45 cells assessed as reduction in cell viability after 24 hrs by CCK-8 assay; assay type: functional, cell-based; conditions: MKN-45, 24 h
[5] = test system: MCF7; assay: Antiproliferative activity against human MCF7 cells assessed as reduction in cell viability after 24 hrs by CCK-8 assay; assay type: functional, cell-based; conditions: MCF7, 24 h
[6] = test system: HeLa; assay: Antiproliferative activity against human HeLa cells assessed as reduction in cell viability after 24 hrs by CCK-8 assay; assay type: functional, cell-based
[7] = test system: HepG2; assay: Antiproliferative activity against human HepG2 cells assessed as reduction in cell viability after 24 hrs by CCK-8 assay; assay type: functional, cell-based; conditions: HepG2, 24 h
[8] = test system: HCT-116; assay: Antiproliferative activity against human HCT-116 cells assessed as reduction in cell viability after 24 hrs by CCK-8 assay; assay type: functional, cell-based; conditions: HCT-116, 24 h
[9] = Inhibition of bovine brain tubulin polymerization by spectrophotometric method; assay type: tissue-based, Bos taurus

COc1ccc(/C=C/c2cc(OC)c(OC)c(OC)c2)cc1OS(N)(=O)=O
IC50 [1]: 55.7 µM | IC50 [2]: 12.9 µM | IC50 [3]: 2.98 µM | IC50 [4]: 10.5 µM | IC50 [5]: 5.44 µM | IC50 [6]: 4.5 µM | IC50 [7]: 0.87 µM | IC50 [8]: 1.57 µM

COc1ccc(CCc2cc(OC)c(OC)c(OC)c2)cc1OS(N)(=O)=O
IC50 [1]: > 100 µM | IC50 [2]: > 100 µM | IC50 [3]: 3.61 µM | IC50 [4]: 11.9 µM | IC50 [5]: 5.91 µM | IC50 [6]: 9.04 µM | IC50 [7]: 1.06 µM | IC50 [8]: 2.63 µM

COc1cc(/C=C/c2ccc(OC(F)F)c(OS(N)(=O)=O)c2)cc(OC)c1OC
IC50 [3]: 9.24 µM | IC50 [4]: 13.8 µM | IC50 [5]: 13.8 µM | IC50 [6]: 8.42 µM | IC50 [7]: 5.54 µM | IC50 [8]: 12.8 µM

COc1cc(/C=C\c2cccc(OS(N)(=O)=O)c2)cc(OC)c1OC
IC50 [1]: > 100 µM | IC50 [2]: 0.47 µM | IC50 [3]: 8.53 µM | IC50 [4]: 15.3 µM | IC50 [5]: 11.1 µM | IC50 [6]: 16.3 µM | IC50 [7]: 9.36 µM | IC50 [8]: 9.5 µM

COc1cc(/C=C\c2ccc(OC(F)F)c(OS(N)(=O)=O)c2)cc(OC)c1OC
IC50 [1]: 72.6 µM | IC50 [2]: 4.64 µM | IC50 [3]: 9 µM | IC50 [4]: 12.5 µM | IC50 [5]: 0.29 µM | IC50 [6]: 7.82 µM | IC50 [7]: 4.81 µM | IC50 [8]: 9.11 µM

COc1cc(/C=C/c2cccc(OS(N)(=O)=O)c2)cc(OC)c1OC
IC50 [3]: 27 µM | IC50 [4]: 25 µM | IC50 [5]: 27.4 µM | IC50 [6]: 19 µM | IC50 [7]: 11.8 µM | IC50 [8]: 40.3 µM

COc1cc(CCc2cccc(OS(N)(=O)=O)c2)cc(OC)c1OC
IC50 [3]: 17.6 µM | IC50 [4]: 25.7 µM | IC50 [5]: > 100 µM | IC50 [6]: 27.1 µM | IC50 [7]: 12 µM | IC50 [8]: 52.5 µM

COc1ccc(/C=C\c2cc(OC)c(OC)c(OC)c2)cc1NS(N)(=O)=O
IC50 [1]: 86.2 µM | IC50 [2]: > 100 µM | IC50 [3]: 0.5 µM | IC50 [4]: 9.56 µM | IC50 [5]: 11.2 µM | IC50 [6]: 0.27 µM | IC50 [7]: 0.75 µM | IC50 [8]: 3.29 µM

CNS(=O)(=O)Oc1cc(/C=C\c2cc(OC)c(OC)c(OC)c2)ccc1OC
IC50 [1]: 1.8 µM | IC50 [2]: > 100 µM | IC50 [3]: 0.0037 µM | IC50 [4]: 0.0073 µM | IC50 [5]: 0.53 µM | IC50 [6]: 0.0034 µM | IC50 [7]: 0.0039 µM | IC50 [8]: 0.0113 µM

CCOc1ccc(/C=C\c2cc(OC)c(OC)c(OC)c2)cc1OS(N)(=O)=O
IC50 [1]: 3.1 µM | IC50 [2]: 90.2 µM | IC50 [3]: 0.27 µM | IC50 [4]: 0.32 µM | IC50 [5]: 0.3 µM | IC50 [6]: 0.48 µM | IC50 [7]: 0.41 µM | IC50 [8]: 0.55 µM

CCOc1ccc(CCc2cc(OC)c(OC)c(OC)c2)cc1OS(N)(=O)=O
IC50 [3]: 3.59 µM | IC50 [4]: 7.67 µM | IC50 [5]: 14.8 µM | IC50 [6]: 2.93 µM | IC50 [7]: 3.65 µM | IC50 [8]: 10.2 µM

COc1ccc(/C=C\c2cc(OC)c(OC)c(OC)c2)cc1OS(=O)(=O)N(C)C
IC50 [1]: 12.5 µM | IC50 [2]: > 100 µM | IC50 [3]: 7.14 µM | IC50 [4]: 8.95 µM | IC50 [5]: 11.1 µM | IC50 [6]: 14.3 µM | IC50 [7]: 9.96 µM | IC50 [8]: 0.37 µM

COc1ccc(/C=C/c2cc(OC)c(OC)c(OC)c2)cc1NS(N)(=O)=O
IC50 [3]: 6.19 µM | IC50 [4]: 18.9 µM | IC50 [5]: 17.1 µM | IC50 [6]: 0.38 µM | IC50 [7]: 7.53 µM | IC50 [8]: 8.65 µM

COc1ccc(/C=C\c2cc(OC)c(OC)c(OC)c2)cc1OS(N)(=O)=O
IC50 [1]: 6.6 µM | IC50 [2]: 6.16 µM | IC50 [3]: 0.0047 µM | IC50 [4]: 0.0095 µM | IC50 [5]: 0.11 µM | IC50 [6]: 0.0061 µM | IC50 [7]: 0.0036 µM | IC50 [8]: 0.005 µM

COc1ccc(CCc2cc(OC)c(OC)c(OC)c2)cc1NS(N)(=O)=O
IC50 [3]: 8.21 µM | IC50 [4]: 73.9 µM | IC50 [5]: 20.1 µM | IC50 [6]: 2.93 µM | IC50 [7]: 8.1 µM | IC50 [8]: 30.6 µM

CCOc1ccc(/C=C/c2cc(OC)c(OC)c(OC)c2)cc1OS(N)(=O)=O
IC50 [3]: 7.63 µM | IC50 [4]: 8.05 µM | IC50 [5]: 13.7 µM | IC50 [6]: 5.64 µM | IC50 [7]: 2.63 µM | IC50 [8]: 9.12 µM

COc1cc(CCc2ccc(OC(F)F)c(OS(N)(=O)=O)c2)cc(OC)c1OC
IC50 [3]: 23.3 µM | IC50 [4]: 71.4 µM | IC50 [5]: 52.7 µM | IC50 [6]: 35.6 µM | IC50 [7]: 15.9 µM | IC50 [8]: 26.5 µM

COc1cc2c(cc1O)CC[C@@H]1[C@@H]2CC[C@]2(C)[C@@H](O)CC[C@@H]12 [2-METHOXYESTRADIOL]
IC50 [9]: 40 µM

COc1ccc(/C=C\c2cc(OC)c(OC)c(OC)c2)cc1O [COMBRETASTATIN A4]
IC50 [2]: > 100 µM | IC50 [3]: 0.006 µM | IC50 [4]: 0.0081 µM | IC50 [5]: 0.14 µM | IC50 [7]: 0.0029 µM | IC50 [8]: 0.0047 µM

C[C@]12CC[C@@H]3c4ccc(OS(N)(=O)=O)cc4CC[C@H]3[C@@H]1CCC2=O [EMATE]
IC50 [1]: 25.9 µM | IC50 [2]: 5.01 µM | IC50 [3]: 0.48 µM | IC50 [4]: 0.54 µM | IC50 [5]: 0.07 µM | IC50 [6]: 0.63 µM | IC50 [7]: 0.85 µM | IC50 [8]: 0.9 µM
